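Five compound concentrations were applied to cells in 96-well plates for 48 hours; endpoints were derived by simple linear interpolation of the resulting dose-response curve. At the TGI there is no net growth.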
Assays:
Assay in all cases: growth of human tumour cells (NCI), 48 h
786-0 renal = system: 786-0 renal
A498 renal = system: A498 renal
A549 NSCLC = system: A549 NSCLC
ACHN renal = system: ACHN renal
CAKI-1 renal = system: CAKI-1 renal
CCRF-CEM leukemia = system: CCRF-CEM leukemia
COLO 205 colon = system: COLO 205 colon
DLD-1 colon = system: DLD-1 colon
DMS 273 small cell lung = system: DMS 273 small cell lung
EKVX NSCLC = system: EKVX NSCLC
HCC-2998 colon = system: HCC-2998 colon
HCT-116 colon = system: HCT-116 colon
HCT-15 colon = system: HCT-15 colon
HL-60(TB) leukemia = system: HL-60(TB) leukemia
HOP-62 NSCLC = system: HOP-62 NSCLC
HOP-92 NSCLC = system: HOP-92 NSCLC
HT29 colon = system: HT29 colon
IGROV1 ovarian = system: IGROV1 ovarian
K-562 leukemia = system: K-562 leukemia
KM12 colon = system: KM12 colon
KM20L2 colon = system: KM20L2 colon
LOX IMVI melanoma = system: LOX IMVI melanoma
LXFL 529 NSCLC = system: LXFL 529 NSCLC
M14 melanoma = system: M14 melanoma
M19-MEL melanoma = system: M19-MEL melanoma
MALME-3M melanoma = system: MALME-3M melanoma
MOLT-4 leukemia = system: MOLT-4 leukemia
NCI-H226 lung = system: NCI-H226 lung
NCI-H23 lung = system: NCI-H23 lung
NCI-H460 lung = system: NCI-H460 lung
NCI-H522 lung = system: NCI-H522 lung
OVCAR-3 ovarian = system: OVCAR-3 ovarian
OVCAR-4 ovarian = system: OVCAR-4 ovarian
OVCAR-5 ovarian = system: OVCAR-5 ovarian
OVCAR-8 ovarian = system: OVCAR-8 ovarian
RPMI-8226 leukemia = system: RPMI-8226 leukemia
RXF 393 renal = system: RXF 393 renal
SF-268 CNS = system: SF-268 CNS
SF-295 CNS = system: SF-295 CNS
SF-539 CNS = system: SF-539 CNS
SK-MEL-28 melanoma = system: SK-MEL-28 melanoma
SK-MEL-5 melanoma = system: SK-MEL-5 melanoma
SK-OV-3 ovarian = system: SK-OV-3 ovarian
SN12C renal = system: SN12C renal
SNB-19 CNS = system: SNB-19 CNS
SNB-75 CNS = system: SNB-75 CNS
SNB-78 CNS = system: SNB-78 CNS
SR leukemia = system: SR leukemia
SW-620 colon = system: SW-620 colon
TK-10 renal = system: TK-10 renal
U251 CNS = system: U251 CNS
UACC-257 melanoma = system: UACC-257 melanoma
UACC-62 melanoma = system: UACC-62 melanoma
UO-31 renal = system: UO-31 renal
XF 498 CNS = system: XF 498 CNS
DMS 114 small cell lung = system: DMS 114 small cell lung
HOP-18 NSCLC = system: HOP-18 NSCLC
SK-MEL-2 melanoma = system: SK-MEL-2 melanoma

Q: `COC1=CC(C2c3cc4c(cc3[C@@H](Nc3ccc(F)cc3)C3COC(=O)[C@H]23)OCO4)=CC(=O)C1=O` (some centres not stated) was tested. Which TGI (786-0 renal) did it give?
A: 11.4 µM

Q: What about the TGI (A498 renal) of the same compound?
A: 16 µM

Q: What about the TGI (A549 NSCLC) of the same compound?
A: 20.4 µM

Q: What about the TGI (ACHN renal) of the same compound?
A: 23.4 µM

Q: And the TGI (CAKI-1 renal)?
A: 31.9 µM

Q: And the TGI (CCRF-CEM leukemia)?
A: > 29 µM

Q: What about the TGI (COLO 205 colon) of the same compound?
A: 41.5 µM

Q: What about the TGI (DLD-1 colon) of the same compound?
A: > 100 µM

Q: What about the TGI (DMS 273 small cell lung) of the same compound?
A: 16.3 µM

Q: What about the TGI (EKVX NSCLC) of the same compound?
A: > 59.1 µM

Q: What about the TGI (HCC-2998 colon) of the same compound?
A: 39.6 µM

Q: And the TGI (HCT-116 colon)?
A: 30.5 µM

Q: What about the TGI (HCT-15 colon) of the same compound?
A: 26.9 µM

Q: And the TGI (HL-60(TB) leukemia)?
A: > 21.4 µM

Q: And the TGI (HOP-62 NSCLC)?
A: 5.9 µM

Q: What about the TGI (HOP-92 NSCLC) of the same compound?
A: 31.7 µM

Q: And the TGI (HT29 colon)?
A: > 68.3 µM

Q: And the TGI (IGROV1 ovarian)?
A: 44 µM

Q: And the TGI (K-562 leukemia)?
A: > 49.2 µM

Q: And the TGI (KM12 colon)?
A: 34.5 µM

Q: What about the TGI (KM20L2 colon) of the same compound?
A: > 74.6 µM

Q: And the TGI (LOX IMVI melanoma)?
A: 35.6 µM

Q: And the TGI (LXFL 529 NSCLC)?
A: 16.3 µM

Q: What about the TGI (M14 melanoma) of the same compound?
A: 36.3 µM

Q: And the TGI (M19-MEL melanoma)?
A: 55.7 µM

Q: What about the TGI (MALME-3M melanoma) of the same compound?
A: 36.6 µM

Q: What about the TGI (MOLT-4 leukemia) of the same compound?
A: 14.5 µM

Q: And the TGI (NCI-H226 lung)?
A: 39.3 µM

Q: What about the TGI (NCI-H23 lung) of the same compound?
A: 9.97 µM

Q: And the TGI (NCI-H460 lung)?
A: 14.9 µM

Q: What about the TGI (NCI-H522 lung) of the same compound?
A: 14.9 µM

Q: What about the TGI (OVCAR-3 ovarian) of the same compound?
A: > 66.5 µM

Q: And the TGI (OVCAR-4 ovarian)?
A: > 61.2 µM

Q: And the TGI (OVCAR-5 ovarian)?
A: 98.2 µM

Q: And the TGI (OVCAR-8 ovarian)?
A: > 51.4 µM

Q: What about the TGI (RPMI-8226 leukemia) of the same compound?
A: > 100 µM

Q: And the TGI (RXF 393 renal)?
A: > 100 µM

Q: What about the TGI (SF-268 CNS) of the same compound?
A: 36.6 µM

Q: And the TGI (SF-295 CNS)?
A: 11.8 µM

Q: And the TGI (SF-539 CNS)?
A: 20.3 µM

Q: What about the TGI (SK-MEL-28 melanoma) of the same compound?
A: 45.8 µM

Q: And the TGI (SK-MEL-5 melanoma)?
A: > 43.5 µM

Q: What about the TGI (SK-OV-3 ovarian) of the same compound?
A: 23.1 µM

Q: What about the TGI (SN12C renal) of the same compound?
A: 24.8 µM

Q: What about the TGI (SNB-19 CNS) of the same compound?
A: > 66.5 µM

Q: And the TGI (SNB-75 CNS)?
A: > 45.1 µM

Q: And the TGI (SNB-78 CNS)?
A: > 96.4 µM

Q: And the TGI (SR leukemia)?
A: > 23.6 µM

Q: What about the TGI (SW-620 colon) of the same compound?
A: > 50.1 µM

Q: And the TGI (TK-10 renal)?
A: > 63 µM

Q: What about the TGI (U251 CNS) of the same compound?
A: 13.7 µM

Q: And the TGI (UACC-257 melanoma)?
A: > 63.9 µM

Q: What about the TGI (UACC-62 melanoma) of the same compound?
A: 20.7 µM

Q: What about the TGI (UO-31 renal) of the same compound?
A: 30.2 µM

Q: And the TGI (XF 498 CNS)?
A: 27.9 µM

Q: How did the TGI (786-0 renal) turn out when `CC1(C)O[C@@H](C[C@]2(C#N)C[C@H](CCl)OC(C)(C)O2)C[C@@H](C#N)O1` was run?
A: > 100 µM

Q: What about the TGI (A498 renal) of the same compound?
A: > 100 µM

Q: And the TGI (A549 NSCLC)?
A: > 100 µM

Q: And the TGI (ACHN renal)?
A: > 100 µM

Q: And the TGI (CAKI-1 renal)?
A: > 100 µM

Q: And the TGI (CCRF-CEM leukemia)?
A: > 100 µM

Q: What about the TGI (COLO 205 colon) of the same compound?
A: > 100 µM

Q: What about the TGI (DLD-1 colon) of the same compound?
A: > 100 µM

Q: And the TGI (DMS 114 small cell lung)?
A: > 100 µM

Q: And the TGI (DMS 273 small cell lung)?
A: > 100 µM

Q: What about the TGI (EKVX NSCLC) of the same compound?
A: > 100 µM

Q: What about the TGI (HCC-2998 colon) of the same compound?
A: > 100 µM

Q: And the TGI (HCT-116 colon)?
A: > 100 µM

Q: And the TGI (HCT-15 colon)?
A: > 100 µM

Q: And the TGI (HL-60(TB) leukemia)?
A: > 100 µM

Q: And the TGI (HOP-18 NSCLC)?
A: > 100 µM

Q: What about the TGI (HOP-62 NSCLC) of the same compound?
A: > 100 µM

Q: And the TGI (HOP-92 NSCLC)?
A: > 100 µM

Q: And the TGI (HT29 colon)?
A: > 100 µM

Q: What about the TGI (IGROV1 ovarian) of the same compound?
A: > 100 µM

Q: And the TGI (K-562 leukemia)?
A: > 100 µM

Q: And the TGI (KM12 colon)?
A: > 100 µM

Q: And the TGI (KM20L2 colon)?
A: > 100 µM

Q: And the TGI (LOX IMVI melanoma)?
A: > 100 µM

Q: What about the TGI (M14 melanoma) of the same compound?
A: > 100 µM

Q: And the TGI (M19-MEL melanoma)?
A: > 100 µM

Q: What about the TGI (MALME-3M melanoma) of the same compound?
A: > 100 µM

Q: What about the TGI (MOLT-4 leukemia) of the same compound?
A: > 100 µM

Q: What about the TGI (NCI-H226 lung) of the same compound?
A: > 100 µM

Q: What about the TGI (NCI-H23 lung) of the same compound?
A: > 100 µM

Q: What about the TGI (NCI-H460 lung) of the same compound?
A: > 100 µM

Q: And the TGI (NCI-H522 lung)?
A: > 100 µM

Q: And the TGI (OVCAR-3 ovarian)?
A: > 100 µM

Q: And the TGI (OVCAR-4 ovarian)?
A: > 100 µM

Q: And the TGI (OVCAR-5 ovarian)?
A: > 100 µM

Q: What about the TGI (OVCAR-8 ovarian) of the same compound?
A: > 100 µM

Q: And the TGI (RPMI-8226 leukemia)?
A: > 100 µM

Q: What about the TGI (RXF 393 renal) of the same compound?
A: > 100 µM

Q: And the TGI (SF-268 CNS)?
A: > 100 µM

Q: What about the TGI (SF-295 CNS) of the same compound?
A: > 100 µM

Q: And the TGI (SF-539 CNS)?
A: > 100 µM

Q: And the TGI (SK-MEL-2 melanoma)?
A: > 100 µM

Q: What about the TGI (SK-MEL-28 melanoma) of the same compound?
A: > 100 µM

Q: What about the TGI (SK-MEL-5 melanoma) of the same compound?
A: > 100 µM

Q: What about the TGI (SK-OV-3 ovarian) of the same compound?
A: > 100 µM

Q: And the TGI (SN12C renal)?
A: > 100 µM

Q: And the TGI (SNB-19 CNS)?
A: > 100 µM

Q: What about the TGI (SNB-75 CNS) of the same compound?
A: > 100 µM

Q: What about the TGI (SNB-78 CNS) of the same compound?
A: > 100 µM

Q: And the TGI (SR leukemia)?
A: > 100 µM

Q: And the TGI (SW-620 colon)?
A: > 100 µM

Q: And the TGI (TK-10 renal)?
A: > 100 µM

Q: What about the TGI (U251 CNS) of the same compound?
A: > 100 µM

Q: What about the TGI (UACC-257 melanoma) of the same compound?
A: > 100 µM

Q: What about the TGI (UACC-62 melanoma) of the same compound?
A: > 100 µM

Q: What about the TGI (UO-31 renal) of the same compound?
A: > 100 µM

Q: And the TGI (XF 498 CNS)?
A: > 100 µM

Source: PubChem BioAssay (NCI)
